Source: patent US4868291A, “4'-deshydroxyepipodophyllotoxin glucosides: synthesis and use” (Bristol-Myers Company, priority 1987, dated 1989)
≈ marks a conversion by molar mass, not a printed value. Read-outs that look alike come from different tables or passages of the source.

Key:
MOSER = experiment: In vitro cytotoxicity assay, Moser human colon; type: cell-based; details: dissolved in DMSO, two unlabelled lines of values
Experimental: (§1) The in vitro cytotoxicity assay involves growing various mammalian tumor cells, including human tumor cells, on Microtiter plates employing established tissue culture methods. The concentration of each compound required to inhibit cell growth by 50% (IC50) is then determined by a four-fold serial dilution technique. The validity of the method has been supported by a report published in the "Proceedings of the American Association for Cancer Research", 1984, 25: 1891 (Abst. No. 328). Tumor cells of the following type were employed: B16-F10 murine melanoma, Moser human colon, SW900 human lung resistant to teniposide (VM) and etoposide (VP) and three human colon tumor cell lines, i.e. HCT-116, HCT-VM and HCT-VP, the latter two being resistant to teniposide (VM) and etoposide (VP), respectively. IC50 values less than […] are a positive indicator of antitumor activity. Table I presents IC50 values against the above-mentioned cell lines.

B16-F10 = experiment: In vitro cytotoxicity assay, B16-F10 murine melanoma; type: cell-based; details: dissolved in DMSO, two unlabelled lines of values
Experimental: as §1

HCT/VP35 = experiment: In vitro cytotoxicity assay, HCT/VP35 human colon, etoposide resistant; type: cell-based; details: dissolved in DMSO, two unlabelled lines of values
Experimental: as §1

P388 murine leukemia = experiment: Antitumor activity against murine P388 leukemia in CDF1 mice; type: in vivo
Experimental: Female CDF1 mice were implanted intraperitoneally with a tumor inoculum of 10^6 ascites cells of P388 murine leukemia and treated with various doses of the compound of Example 4; four mice were used for each dose level and ten were used as saline-treated control. The compound was administered by intraperitoneal injection in two injections on day 1 and day 5. Antitumor activity was expressed as %T/C which is the ratio of the median survival time (MST) of the drug-treated group to the MST of the saline-treated control group. A compound showing a %T/C of 125 or greater is generally considered to have significant antitumor activity in the P388 test. The experiment lasted 31 days at the end of which time the number of survivors was noted.

[1] = system: variety of cancers including small cell lung cancer, non-lymphocytic leukemia and non-seminomatous testicular cancer; details: clinical, background statement; cited from earlier work
[2] = Haim et al. 1986; cited from earlier work

Row | Compound | IC50 (MOSER; Homo sapiens, read-out: IC50) | IC50 (MOSER) | IC50 (B16-F10; B16-F10) | IC50 (B16-F10; Mus musculus, B16-F10, B16-F10, read-out: IC50) | IC50 (HCT/VP35; HCT/VP35, resistant to etoposide) | IC50 (HCT/VP35; Homo sapiens, HCT/VP35, HCT/VP35, resistant to etoposide, read-out: IC50) | MST (median survival time) (P388 murine leukemia; 150 mg/kg/inj., i.p., days 1 and 5, dose with maximum effect, saline control 10.0 days) | Day 5 No. mice alive/total (P388 murine leukemia; 150 mg/kg/inj., i.p., day 5) | mice alive at day 31 (P388 murine leukemia; day 31, test or control group) | % T/C (MST treated / MST control) (P388 murine leukemia; maximum %T/C, at 150 mg/kg/inj., i.p., days 1 and 5, 125 or greater is significant) | activity in the treatment of cancers [1] | metabolites formed on peroxidative activation [2]
1 | COc1cc(OC)cc([C@@H]2c3cc4c(cc3[C@@H](O[C@@H]3O[C@@H]5CO[C@@H](C)O[C@H]5[C@H](O)[C@H]3O)[C@H]3COC(=O)[C@H]23)OCO4)c1 [Example 4, 4'-Desmethoxyetoposide] | 60 µg/mL (≈ 105 µM) | 31 µg/mL (≈ 54.1 µM) | 27 µg/mL (≈ 47.2 µM) | 23 µg/mL (≈ 40.2 µM) | 3.5 µg/mL (≈ 6.11 µM) | 3.3 µg/mL (≈ 5.76 µM) | 17.5 days | 4/4 | no mice were alive | 175% |  | 
2 | COc1cc([C@@H]2c3cc4c(cc3[C@@H](O[C@@H]3O[C@@H]5CO[C@@H](C)O[C@H]5[C@H](O)[C@H]3O)[C@H]3COC(=O)[C@H]23)OCO4)cc(OC)c1O [Etoposide] |  |  |  |  |  |  |  |  |  |  | active in the treatment of a variety of cancers | formation of two metabolites, one of which has been identified as the corresponding orthoquinone III
3 | COc1cc([C@@H]2c3cc4c(cc3[C@@H](O[C@@H]3O[C@@H]5CO[C@@H](c6cccs6)O[C@H]5[C@H](O)[C@H]3O)[C@H]3COC(=O)[C@H]23)OCO4)cc(OC)c1O [Teniposide] |  |  |  |  |  |  |  |  |  |  | active in the treatment of a variety of cancers | formation of two metabolites, one of which has been identified as the corresponding orthoquinone III
